Measured values taken from PMC9666886, “Molecular characteristics of glutathione transferase gene family in a neglect medical Spirometra tapeworm” (Frontiers in Veterinary Science, 2022).

B1: rSmGST (Spirometra erinaceieuropaei) (protein)
chain: MGSLPVLEYWKIRGLAQAIRLLFHYLGQEYVEELYEAGGPPDFSREPWLKHKFNKGLDFPNLPYLIDDGFKITQSGAILEYVADKHGMLPTSAKERAVLHMLQNELSGFRASYGRLVYNPDFSKLKQGFLDELPQKLRLWSNYLGDKQWLTGDKIQYPDFNLYDFLDALQNLEPSCLKDFPNLQRYMKRFEDLDKIKEFQKSDAYIAHPFNNTVAAWRGDA

Tests used:
rSmGST [1] = target: T1, rSmGST (Spirometra mansoni, UniProt I1SZ68); test: biochemical; format: biochemical; conditions: for Ki / IC50: 4 mM GSH; for Ki: CDNB varied 0.20 to 2.0 mM, secondary plot of 1/v intercept vs inhibitor concentration; for inhibition pattern: CDNB as the variable substrate, double-reciprocal plots; for maximal slope at IC50 of fractional velocity vs log inhibitor concentration: Supplementary Figure S4; for IC50: concentration giving 50% inhibition, percent residual activity vs log inhibitor concentration, 1 mM CDNB, pH 6.5
Experimental: (§1) The effect of temperature on rSmGST was carried out by keeping the enzyme at different temperatures (15, 20, 25, 30, 35, 40, 45, 50, and 55°C) for 10 min, and then enzyme activity was assayed immediately. The effect of pH on rSmGST was carried out using the phosphate buffer having different pH from 5.5 to 10. Activity of enzyme was determined in 100 mM potassium phosphate buffer (pH 6.5) with 1 mM l-chloro-2,4-dinitrobenzene (CDNB) and 4 mM GSH as substrates by following the change in absorbance at 340 nm (ε 1/4 9.6 mM^−1. cm^−1) for 1 min at 30°C as previously described ([28]). In the kinetic mechanism analysis of rSmGST, double reciprocal Lineweaver-Burk plot was used to graphically determine the apparent Km and Vmax values. Inhibition studies were performed according to the procedure of Tahir et al. ([29]). Different range of concentrations of Rose Bengal (RB, 0.1–1000 μM), Cibacron Blue (CB, 0.1–1000 μM), Bromosulfophtalein (BSP, 0.1–500 μM), and Tripheniltin chloride (TPT, 0.1–100 μM) were used as inhibitors respectively. The concentration of inhibitor giving 50% inhibition (IC50) was obtained by plotting the percent of residual activity vs the log of inhibitor concentration. The Ki values for each rSmGST inhibitor were determined according to methods described in Nava et al. ([30]). To ascertain which type of reversible enzyme inhibition occurs, initial-velocity enzyme reactions in the presence of the inhibitors were performed. The rSmGST was preincubated for a few seconds in the assay buffer with 4 mM GSH and inhibitor at the corresponding concentration (CB, 10, 30 μM; TPT, 4, 8 μM; BSP, 20, 60 μM and RB, 20, 60 μM). The reaction was initiated by addition of one of a range of 0.20 to 2.0 mM of different concentrations of CDNB. A set of reactions under identical conditions was performed for each inhibitor concentration and for the non-inhibitor control.

rSmGST [2] = target: T1, rSmGST; test: Enzyme kinetics of rSmGST with the substrates GSH and CDNB (Lineweaver-Burk plot); format: biochemical; conditions: for saturation point (substrate concentration): no further increase in enzyme activity above this concentration
Experimental: as §1

[3] = substrate: N[C@@H](CCC(=O)N[C@@H](CS)C(=O)NCC(=O)O)C(=O)O; test: as above; format: biochemical, Spirometra mansoni; conditions: other: Lineweaver-Burk plot; GSH 0.5–5.0 mM or CDNB 0.2–2.0 mM as varied substrate; pH 6.5
Experimental: as §1, with “To ascertain which type of reversible enzyme inhibition occurs, initial-velocity enzyme reactions in the presence of the inhibitors were performed. The rSmGST was preincubated for a few seconds in the assay buffer with 4 mM GSH and inhibitor at the corresponding concentration (CB, 10, 30 μM; TPT, 4, 8 μM; BSP, 20, 60 μM and RB, 20, 60 μM). The reaction was initiated by addition of one of a range of 0.20 to 2.0 mM of different concentrations of CDNB. A set of reactions under identical conditions was performed for each inhibitor concentration and for the non-inhibitor control.” left out

[4] = Lineweaver-Burk plot, GSH 0.5–5.0 mM or CDNB 0.2–2.0 mM as varied substrate

Molecule | Ki (rSmGST [1]) [µM] | inhibition pattern (rSmGST [1]) | maximal slope at IC50 of fractional velocity vs log inhibitor concentration (rSmGST [1]) | IC50 (rSmGST [1]) [µM] | also measured
Nc1c(S(=O)(=O)O)cc(Nc2ccc(Nc3nc(Cl)nc(Nc4ccccc4S(=O)(=O)O)n3)c(S(=O)(=O)O)c2)c2c1C(=O)c1ccccc1C2=O [Cibacron Blue] | 20.1 | uncompetitive | −0.51 | 11.7 | –
[Cl][Sn]([c]1ccccc1)([c]1ccccc1)[c]1ccccc1 [Tripheniltin chloride] | 11.7 | non-competitive | −0.59 | 12.1 | –
N[C@@H](CCC(=O)N[C@@H](CS)C(=O)NCC(=O)O)C(=O)O [GSH, glutathione] | – | – | – | – | saturation point (substrate concentration) (rSmGST [2]): 4.0 mM
O=C1OC(c2ccc(O)c(S(=O)(=O)O)c2)(c2ccc(O)c(S(=O)(=O)O)c2)c2c(Br)c(Br)c(Br)c(Br)c21 [Bromosulfophtalein] | 122 | non-competitive | −0.27 | 290 | –
O=[N+]([O-])c1ccc(Cl)c([N+](=O)[O-])c1 [CDNB, 1-chloro-2,4-dinitrobenzene] | – | – | – | – | specific activity of rSmGST toward substrate (rSmGST [2]): 3.12 µmol/min/mg; Km (rSmGST [2]; [4]): 6.29 mM; Vmax (rSmGST [2]; [4]): 10.120 µmol/min/mL; saturation point (substrate concentration) (rSmGST [2]): 1.6 mM
O=C([O-])c1c(Cl)c(Cl)c(Cl)c(Cl)c1-c1c2cc(I)c(=O)c(I)c-2oc2c(I)c([O-])c(I)cc12.[Na+].[Na+] [Rose Bengal] | 57.6 | uncompetitive | −0.63 | 34 | –
B1 | – | – | – | – | Km [3]: 0.78 mM; Vmax [3]: 1.146 µmol/min/mL
